We go through one molecule from patent US4229533A, “Method for producing antibiotic C-15003 P-4” (priority 1977, dated 1980).

Some results are limits rather than exact numbers.

Data set [1] has as its system P388 leukemia. The data set is described as follows: Antitumour activity upon P388 leukemia in mice. It is filed as in vivo, mouse. As to conditions: 1×10^6 cells/animal i.p., 0.00625 mg/kg/day intraperitoneally for 9 consecutive days. The text has this:
The therapeutic effects of P-4 (dosed intraperitoneally for 9 consecutive days) upon P388 leukemia in mice (1×10^6 cells/animal, mouse, intraperitoneally transplanted) was investigated.

A short description of data set [2]: Solubility. The class given is physicochemical.
Data set [3] is described as follows: Preliminary acute toxicity test with mice. To be noted: mouse, in vivo, ip, intraperitoneal. From the text: In a preliminary acute toxicity test with mice as test animals, which involved intraperitoneal injections of P-4.
Data set [4] relates to Fusicladium levieri. The experiment in a line: Activity against microorganisms. The class given is cell-based.
Data set [5] deals with Pyricularia oryzae. The class given is cell-based.
The test system of data set [6] is Pseudomonas aeruginosa. The experiment in a line: Antimicrobial activity by the paper disc method. It is filed as cell-based. To be noted: 8 mm, 0.02 ml of a 300 μg/ml solution, trypticase-soy agar. As for the experimental part: (§1) With trypticase-soy agar (BBL) as an assay medium, the inhibitory concentrations against the microorganisms described below were investigated by the paper disc method. Thus, filter-paper discs (Toyo Seisakusho, thin-type, 8 mm in dia.) each impregnated with 0.02 ml of a 300 μg/ml solution of P-4 were placed on agar plates respectively inoculated with the microorganisms described below. P-4 had no activity against the following bacteria. Escherichia coli, Proteus vulgaris, Proteus mirabilis, Pseudomonas aeruginosa, Staphylococcus aureus, Bacillus subtilis, Bacillus cereus, Klebsiella pneumoniae, Serratia marcescens and Mycobacterium avium

For data set [7], the system named is Escherichia coli. The experiment in a line: Antimicrobial activity by the paper disc method. As to conditions: 8 mm, 0.02 ml of a 300 μg/ml solution, trypticase-soy agar. The class given is cell-based. As for the experimental part:
as §1

Data set [8] concerns Klebsiella pneumoniae. The experiment in a line: Antimicrobial activity by the paper disc method. The class given is cell-based. As to conditions: 8 mm, 0.02 ml of a 300 μg/ml solution, trypticase-soy agar. As for the experimental part:
as §1

Data set [9] deals with Mycobacterium avium. The data set is described as follows: Antimicrobial activity by the paper disc method. It is filed as cell-based. To be noted: 8 mm, 0.02 ml of a 300 μg/ml solution, trypticase-soy agar. As for the experimental part:
as §1

Data set [10] relates to Staphylococcus aureus. The experiment in a line: Antimicrobial activity by the paper disc method. The class given is cell-based. To be noted: 8 mm, 0.02 ml of a 300 μg/ml solution, trypticase-soy agar. The protocol: as §1
Data set [11] has as its system Bacillus cereus. The experiment in a line: Antimicrobial activity by the paper disc method. As to conditions: 8 mm, 0.02 ml of a 300 μg/ml solution, trypticase-soy agar. The class given is cell-based. The protocol:
as §1

Data set [12] has as its system Proteus mirabilis. The data set is described as follows: Antimicrobial activity by the paper disc method. As to conditions: 8 mm, 0.02 ml of a 300 μg/ml solution, trypticase-soy agar. It is filed as cell-based. The protocol: as §1
Data set [13] has as its system Serratia marcescens. The experiment in a line: Antimicrobial activity by the paper disc method. The class given is cell-based. To be noted: 8 mm, 0.02 ml of a 300 μg/ml solution, trypticase-soy agar. The protocol: as §1
Data set [14] relates to Proteus vulgaris. The data set is described as follows: Antimicrobial activity by the paper disc method. It is filed as cell-based. To be noted: 8 mm, 0.02 ml of a 300 μg/ml solution, trypticase-soy agar. The protocol: as §1
The test system of data set [15] is Bacillus subtilis. The data set is described as follows: Antimicrobial activity by the paper disc method. It is filed as cell-based. To be noted: 8 mm, 0.02 ml of a 300 μg/ml solution, trypticase-soy agar. The protocol:
as §1

Data set [16] concerns Pellicularia sasakii. The experiment in a line: Activity against microorganisms. The class given is cell-based.
The test system of data set [17] is Helminthosporium sigmoidium var. irregulare. The experiment in a line: Activity against microorganisms. The class given is cell-based.
For data set [18], the system named is Sclerotinia screrotiorum. The data set is described as follows: Activity against microorganisms. It is filed as cell-based.
The test system of data set [19] is Trichophyton rubrum. The data set is described as follows: Activity against microorganisms. It is filed as cell-based.
Data set [20] has as its system Cochlioborus miyabeanus. The experiment in a line: Activity against microorganisms. It is filed as cell-based.
Data set [21] deals with Rhodotorula ruba. The data set is described as follows: Activity against microorganisms. It is filed as cell-based.
In data set [22] the test system is Cryptococcus neoformans. The experiment in a line: Activity against microorganisms. It is filed as cell-based.

For `COc1cc2cc(c1Cl)N(C)C(=O)CC(OC(=O)CC(C)C)C1(C)OC1C(C)C1CC(O)(NC(=O)O1)C(OC)C=CC=C(C)C2` (stereo not drawn) [P-4], in [1], the life-span-extending ratio worked out at 180%. Moreover, the Solubility entry is listed as “Sparingly soluble” in [2] (in benzene, ether); “Soluble” in data set [2] (in chloroform, ethyl acetate, acetone, ethanol, methanol, pyridine, tetrahydrofuran, dimethylsulfoxide); “Insoluble” in data set [2] (in petr. ether, hexane, water). In addition, the LD50 in data set [3] is > 0.313 mg/kg. Moreover, the “activity against Fusicladium levieri” value in data set [4] is “had the activity”. In addition, the “activity against Pyricularia oryzae” value in [5] was “had the activity”. The “activity against Pseudomonas aeruginosa” value in data set [6] is recorded as “no activity”. In addition, the “activity against Escherichia coli” value in data set [7] is “no activity”. For the same molecule, in data set [8], the “activity against Klebsiella pneumoniae” value is “no activity”. Moreover, the “activity against Mycobacterium avium” value in data set [9] is recorded as “no activity”. Moreover, in [10], the “activity against Staphylococcus aureus” value was “no activity”. The “activity against Bacillus cereus” value in data set [11] was “no activity”. Besides, the “activity against Proteus mirabilis” value in data set [12] was “no activity”. Further, in data set [13], the “activity against Serratia marcescens” value is recorded as “no activity”. The “activity against Proteus vulgaris” value in [14] is “no activity”. The “activity against Bacillus subtilis” value in data set [15] was “no activity”. Moreover, the “activity against Pellicularia sasakii” value in data set [16] is “had the activity”. In addition, the “activity against Helminthosporium sigmoidium var. irregulare” value in [17] is recorded as “had the activity”. The “activity against Sclerotinia screrotiorum” value in [18] was “had the activity”. The “activity against Trichophyton rubrum” value in data set [19] is “had the activity”. For the same molecule, the “activity against Cochlioborus miyabeanus” value in data set [20] was “had the activity”. Also, the “activity against Rhodotorula ruba” value in [21] is on record as “had the activity”. For the same molecule, the “activity against Cryptococcus neoformans” value in data set [22] was “had the activity”.
